We go through 4 compounds from patent US11000033B2, “Ketone or oxime compound, and herbicide” (NISSAN CHEMICAL CORPORATION, priority 2014, dated 2021).

Holding throughout (assay type): in vivo
The subject of data set [1] is Echinochloa oryzacola Vasing. Kind of data set: Test Example 1: herbicidal activity, application before weed generation in submerged conditions (symbol A). To be noted: application herbicide amount 320 g/ha. In outline: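 0–5 visual score, 3 wk post-application. Submerged pots, alluvial soil, water 4 cm; seeds sown mixed, rice at 2.5 leaves transplanted. Emulsion diluted to predetermined dose, applied to water surface at sowing. 25–30 °C greenhouse.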

The next data set deals with transplanted rice plant. Kind of data set: Test Example 1: effect on crop, application before weed generation in submerged conditions (symbol a). To be noted: application herbicide amount 320 g/ha. The essentials:
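Alluvial soil pots flooded to 4 cm water, sown with Echinochloa oryzacola, Scirpus juncoides and Monochoria vaginalis, then transplanted with 2.5 leaf stage rice seedlings; pre-emergence application. Greenhouse 25° C. to 30° C.; scored 0–5 by herbicidal ratio 3 weeks after application.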

The next data set relates to Monochoria vaginalis. Kind of data set: Test Example 2: herbicidal activity, application during weed generation in submerged conditions (symbol C). To be noted: Table 23; application herbicide amount 320 g/ha; grade 0-5 by criteria of Test Example 1. The essentials: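 Paddy pot test, submerged (4 cm water), alluvial soil, mixed sowing; greenhouse 25–30° C. Emulsion formulation diluted to predetermined rate, applied onto floodwater at 1–2 leaf stage. Visual herbicidal rating at 3 wk post-treatment.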

Another data set relates to Digitaria ciliaris. Description: Test Example 4: herbicidal effect by soil treatment (symbol F). To be noted: 320 g/ha. The essentials: (§1)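 Seeds were sown in sterilized diluvial soil, covered with about 1.5 cm of soil, and the soil surface was sprayed with a water-diluted emulsion of the compound at a predetermined rate. Plants grew in a greenhouse at 25° C. to 30° C.; effects were scored visually 3 weeks after application.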

In data set [2] the test system is Echinochloa crus-galli var. crus-galli. Description: Test Example 4: herbicidal effect by soil treatment (symbol H). To be noted: 320 g/ha. In outline: as §1
The test system of another data set is Avena fatua. Kind of data set: Test Example 4: herbicidal effect by soil treatment (symbol I). To be noted: 320 g/ha. In outline:
as §1

The subject of data set [3] is Lolium multiflorum Lam. Kind of data set: Test Example 4: herbicidal effect by soil treatment (symbol K). To be noted: 320 g/ha. In outline: as §1
In a further data set the test system is Chenopodium album. Kind of data set: Test Example 4: herbicidal effect by soil treatment (symbol O). To be noted: 320 g/ha. The essentials:
as §1

Data set [4] relates to Stellaria media. Description: Test Example 4: herbicidal effect by soil treatment (symbol P). To be noted: 320 g/ha. The essentials: as §1
A further data set relates to Veronica persica. Kind of data set: Test Example 4: herbicidal effect by soil treatment (symbol R). To be noted: 320 g/ha. In outline:
as §1

The test system of a further data set is soybean. Kind of data set: Test Example 4: effect on crop by soil treatment (symbol d). To be noted: 320 g/ha. The essentials: (§2)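 The test used sterilized diluvial soil. Seed was set down in spots and overlaid with about 1.5 cm of soil before growth in a greenhouse kept at 25° C. to 30° C.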
The next data set has as its system rice. Description: Test Example 4: effect on crop by soil treatment (symbol b). To be noted: 320 g/ha. The essentials: as §2
A further data set deals with rapeseed. Description: Test Example 4: effect on crop by soil treatment (symbol g). To be noted: 320 g/ha. In outline: as §2
Data set [5] has as its system Echinochloa crus-galli var. crus-galli. Description: Test Example 5: herbicidal effect by foliage application, plastic box (symbol H). To be noted: 320 g/ha, 3 weeks after application. In outline:
(§3)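 Seeds were sown in sterilized diluvial soil, covered with about 1.5 cm of soil and grown 14 days in a greenhouse at 25° C. to 30° C. An emulsifiable formulation diluted in water to a set rate was sprayed over foliage, and injury was scored 3 weeks later.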

Data set [6] concerns Lolium multiflorum Lam. Kind of data set: Test Example 5: herbicidal effect by foliage application, plastic box (symbol K). To be noted: 320 g/ha, 3 weeks after application. The essentials:
as §3

A further data set concerns Apera spica-venti. Kind of data set: Test Example 5: herbicidal effect by foliage application, plastic box (symbol L). To be noted: 320 g/ha, 3 weeks after application. In outline: as §3
Data set [7] relates to Stellaria media. Kind of data set: Test Example 5: herbicidal effect by foliage application, plastic box (symbol P). To be noted: 320 g/ha, 3 weeks after application. In outline: as §3

`C=CCN(CC=C)C(=O)OC1=C(c2c(C)cc(C)cc2C)C(=O)C(CC(C)=NOC)C1` (centres unmarked) [1-153]: in data set [1], the “Herbicidal effect grade, A: Echinochloa oryzacola Vasing.” value is listed as 5 (Herbicidal ratio of 90% or more (almost completely withered)). Also, the “Effect grade on crop, a: transplanted rice plant” value in the data set on transplanted rice plant was 4 (Herbicidal ratio of 70% or higher and lower than 90%). Also, the “Herbicidal effect grade, C: Monochoria vaginalis” value (shortened to “Herbicidal effect grade, C”) with Monochoria vaginalis is 0 (Herbicidal ratio of 5% or lower (almost no effect)). For the same compound, the “F: Digitaria ciliaris, herbicidal effect grade” value (“F: Digitaria ciliaris” for short) in the data set with Digitaria ciliaris is reported as 5 (Herbicidal ratio of 90% or more (almost completely withered)). The “H: Echinochloa crus-galli var. crus-galli, herbicidal effect grade” value in data set [2] is listed as 0 (Herbicidal ratio of 5% or lower (almost no effect)). The “I: Avena fatua, herbicidal effect grade” value in the data set on Avena fatua was 0 (Herbicidal ratio of 5% or lower (almost no effect)). For the same compound, in the data set with Lolium multiflorum Lam. [3], the “K: Lolium multiflorum Lam., herbicidal effect grade” value is 4 (Herbicidal ratio of 70% or higher and lower than 90%). The “O: Chenopodium album, herbicidal effect grade” value (from here on “O: Chenopodium album”) with Chenopodium album was 0 (Herbicidal ratio of 5% or lower (almost no effect)). Also, the “P: Stellaria media, herbicidal effect grade” value in the data set on Stellaria media [4] is 0 (Herbicidal ratio of 5% or lower (almost no effect)). Besides, in the data set on Veronica persica, the “R: Veronica persica, herbicidal effect grade” value (“R: Veronica persica” for short) is 0 (Herbicidal ratio of 5% or lower (almost no effect)). In addition, in the data set on soybean, the “d: soybean, effect grade on crop” value is 0 (Herbicidal ratio of 5% or lower (almost no effect)). Moreover, the “b: directly sowed rice plant, effect grade on crop” value (“b: directly sowed rice plant” below) in the data set on rice is 1 (Herbicidal ratio of 5% or higher and lower than 20%). The “g: rapeseed, effect grade on crop” value with rapeseed is recorded as 0 (Herbicidal ratio of 5% or lower (almost no effect)). In addition, the “H: Echinochloa crus-galli var. crus-galli, herbicidal effect (criteria 0-5)” value in data set [5] was 5 (Herbicidal ratio of 90% or more (almost completely withered)). Besides, the “K: Lolium multiflorum Lam., herbicidal effect (criteria 0-5)” value with Lolium multiflorum Lam. [6] is 5 (Herbicidal ratio of 90% or more (almost completely withered)). The “L: Apera spica-venti, herbicidal effect (criteria 0-5)” value in the data set with Apera spica-venti is reported as 5 (Herbicidal ratio of 90% or more (almost completely withered)). In the data set with Stellaria media [7], the “P: Stellaria media, herbicidal effect (criteria 0-5)” value was 0 (Herbicidal ratio of 5% or lower (almost no effect)).
On to `CON=C(C)CC1CC(OS(=O)(=O)CC[Si](C)(C)C)=C(c2c(C)cc(C)cc2C)C1=O` (centres unmarked) [1-144], for which the “Herbicidal effect grade, A: Echinochloa oryzacola Vasing.” value in [1] is recorded as 5 (Herbicidal ratio of 90% or more (almost completely withered)). In addition, the “Effect grade on crop, a: transplanted rice plant” value with transplanted rice plant is recorded as 5 (Herbicidal ratio of 90% or more (almost completely withered)). Besides, the “Herbicidal effect grade, C” value in the data set with Monochoria vaginalis was 2 (Herbicidal ratio of 20% or higher and lower than 40%). The “F: Digitaria ciliaris” value in the data set on Digitaria ciliaris is listed as 5 (Herbicidal ratio of 90% or more (almost completely withered)). For the same compound, the “H: Echinochloa crus-galli var. crus-galli, herbicidal effect grade” value in [2] was 5 (Herbicidal ratio of 90% or more (almost completely withered)). Further, the “I: Avena fatua, herbicidal effect grade” value in the data set on Avena fatua is 2 (Herbicidal ratio of 20% or higher and lower than 40%). For the same compound, in the data set on Lolium multiflorum Lam. [3], the “K: Lolium multiflorum Lam., herbicidal effect grade” value was 4 (Herbicidal ratio of 70% or higher and lower than 90%). Moreover, the “O: Chenopodium album” value in the data set on Chenopodium album is 0 (Herbicidal ratio of 5% or lower (almost no effect)). For the same compound, the “P: Stellaria media, herbicidal effect grade” value in the data set with Stellaria media [4] is given as 0 (Herbicidal ratio of 5% or lower (almost no effect)). In the data set on Veronica persica, the “R: Veronica persica” value is 0 (Herbicidal ratio of 5% or lower (almost no effect)). In the data set with soybean, the “d: soybean, effect grade on crop” value is on record as 0 (Herbicidal ratio of 5% or lower (almost no effect)). The “b: directly sowed rice plant” value in the data set with rice was 5 (Herbicidal ratio of 90% or more (almost completely withered)). Also, in the data set on rapeseed, the “g: rapeseed, effect grade on crop” value is 2 (Herbicidal ratio of 20% or higher and lower than 40%). In addition, the “H: Echinochloa crus-galli var. crus-galli, herbicidal effect (criteria 0-5)” value in data set [5] is 5 (Herbicidal ratio of 90% or more (almost completely withered)). The “K: Lolium multiflorum Lam., herbicidal effect (criteria 0-5)” value with Lolium multiflorum Lam. [6] is given as 5 (Herbicidal ratio of 90% or more (almost completely withered)). Moreover, the “L: Apera spica-venti, herbicidal effect (criteria 0-5)” value in the data set on Apera spica-venti is 5 (Herbicidal ratio of 90% or more (almost completely withered)). The “P: Stellaria media, herbicidal effect (criteria 0-5)” value in the data set with Stellaria media [7] was 2 (Herbicidal ratio of 20% or higher and lower than 40%).
With `CON=C(C)CC1CC(OC(=O)N(C)c2ccccc2)=C(c2c(C)cc(C)cc2C)C1=O` (centres unmarked) [1-159], the “Herbicidal effect grade, A: Echinochloa oryzacola Vasing.” value in [1] was 5 (Herbicidal ratio of 90% or more (almost completely withered)). For the same compound, the “Effect grade on crop, a: transplanted rice plant” value with transplanted rice plant is 1 (Herbicidal ratio of 5% or higher and lower than 20%). Moreover, the “Herbicidal effect grade, C” value with Monochoria vaginalis is 3 (Herbicidal ratio of 40% or higher and lower than 70%). The “F: Digitaria ciliaris” value with Digitaria ciliaris is 4 (Herbicidal ratio of 70% or higher and lower than 90%). The “H: Echinochloa crus-galli var. crus-galli, herbicidal effect grade” value in data set [2] is 3 (Herbicidal ratio of 40% or higher and lower than 70%); in data set [5] it was 4 (Herbicidal ratio of 70% or higher and lower than 90%). In addition, the “I: Avena fatua, herbicidal effect grade” value with Avena fatua was 0 (Herbicidal ratio of 5% or lower (almost no effect)). Further, the “K: Lolium multiflorum Lam., herbicidal effect grade” value with Lolium multiflorum Lam. [3] and in the data set on Lolium multiflorum Lam. [6] was 5 (Herbicidal ratio of 90% or more (almost completely withered)) each time. Also, the “O: Chenopodium album” value in the data set on Chenopodium album is given as 0 (Herbicidal ratio of 5% or lower (almost no effect)). For the same compound, the “P: Stellaria media, herbicidal effect grade” value in the data set with Stellaria media [4] and with Stellaria media [7] was 0 (Herbicidal ratio of 5% or lower (almost no effect)) in each case. Moreover, the “R: Veronica persica” value in the data set with Veronica persica is 0 (Herbicidal ratio of 5% or lower (almost no effect)). The “d: soybean, effect grade on crop” value in the data set on soybean is listed as 0 (Herbicidal ratio of 5% or lower (almost no effect)). Also, the “b: directly sowed rice plant” value with rice was 3 (Herbicidal ratio of 40% or higher and lower than 70%). Further, the “g: rapeseed, effect grade on crop” value in the data set on rapeseed is given as 0 (Herbicidal ratio of 5% or lower (almost no effect)). The “L: Apera spica-venti, herbicidal effect grade” value in the data set on Apera spica-venti is 5 (Herbicidal ratio of 90% or more (almost completely withered)).
For `CON=C(C)CC1CC(OC(=O)C(C)Oc2ccc(Oc3ccc(Cl)cc3Cl)cc2)=C(c2c(C)cc(C)cc2C)C1=O` (centres unmarked) [1-163], the “Herbicidal effect grade, A: Echinochloa oryzacola Vasing.” value in [1] was 5 (Herbicidal ratio of 90% or more (almost completely withered)). The “Effect grade on crop, a: transplanted rice plant” value in the data set on transplanted rice plant was 5 (Herbicidal ratio of 90% or more (almost completely withered)). Besides, the “Herbicidal effect grade, C” value with Monochoria vaginalis is 3 (Herbicidal ratio of 40% or higher and lower than 70%). Besides, the “F: Digitaria ciliaris” value in the data set on Digitaria ciliaris is on record as 5 (Herbicidal ratio of 90% or more (almost completely withered)). The “H: Echinochloa crus-galli var. crus-galli, herbicidal effect grade” value in data set [2] and in data set [5] was 5 (Herbicidal ratio of 90% or more (almost completely withered)) throughout. For the same compound, in the data set on Avena fatua, the “I: Avena fatua, herbicidal effect grade” value was 3 (Herbicidal ratio of 40% or higher and lower than 70%). Also, the “K: Lolium multiflorum Lam., herbicidal effect grade” value in the data set on Lolium multiflorum Lam. [3] and in the data set on Lolium multiflorum Lam. [6] was 5 (Herbicidal ratio of 90% or more (almost completely withered)) each time. For the same compound, in the data set with Chenopodium album, the “O: Chenopodium album” value was 0 (Herbicidal ratio of 5% or lower (almost no effect)). The “P: Stellaria media, herbicidal effect grade” value with Stellaria media [4] was 0 (Herbicidal ratio of 5% or lower (almost no effect)); with Stellaria media [7], 3 (Herbicidal ratio of 40% or higher and lower than 70%). Further, the “R: Veronica persica” value in the data set with Veronica persica was 0 (Herbicidal ratio of 5% or lower (almost no effect)). The “d: soybean, effect grade on crop” value in the data set on soybean is on record as 0 (Herbicidal ratio of 5% or lower (almost no effect)). In addition, the “b: directly sowed rice plant” value in the data set on rice is 5 (Herbicidal ratio of 90% or more (almost completely withered)). In addition, the “g: rapeseed, effect grade on crop” value with rapeseed was 4 (Herbicidal ratio of 70% or higher and lower than 90%). The “L: Apera spica-venti, herbicidal effect grade” value in the data set on Apera spica-venti is given as 5 (Herbicidal ratio of 90% or more (almost completely withered)).
